{"source": "patent US20060160869A1", "about": "“Ubiquitin ligase inhibitors” (Rigel Pharmaceuticals, Inc., priority 2005, published 2006)", "key": {"[1]": {"target": "MDM2 (Homo sapiens, UniProt Q00987)", "sequence (Q00987 whole entry)": "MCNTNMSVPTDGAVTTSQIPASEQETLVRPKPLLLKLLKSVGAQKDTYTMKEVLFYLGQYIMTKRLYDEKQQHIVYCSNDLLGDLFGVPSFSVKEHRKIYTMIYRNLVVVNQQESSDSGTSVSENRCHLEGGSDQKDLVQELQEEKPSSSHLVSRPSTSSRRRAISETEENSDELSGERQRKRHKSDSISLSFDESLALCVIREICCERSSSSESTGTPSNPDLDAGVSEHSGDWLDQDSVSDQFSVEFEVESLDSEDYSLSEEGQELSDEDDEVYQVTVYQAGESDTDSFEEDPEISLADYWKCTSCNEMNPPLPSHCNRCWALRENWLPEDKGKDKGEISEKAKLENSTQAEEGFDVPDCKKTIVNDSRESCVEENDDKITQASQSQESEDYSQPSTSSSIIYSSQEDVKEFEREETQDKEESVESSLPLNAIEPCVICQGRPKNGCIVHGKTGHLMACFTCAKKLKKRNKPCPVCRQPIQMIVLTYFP", "assay": "Plate-based E3 ligase assay, MDM2 autoubiquitination (MDM2-FLAG)", "type": "biochemical", "conditions": "Table 2; read-out: MDM2 IC50", "method": "(§1) E3 (His-APC11/APC2—“APC”) auto-ubiquitination was measured as described in U.S. patent application Ser. No. 09/826,312 (Publication No. US-2002-0042083-A1), which is incorporated herein in its entirety. Details of the protocol are described below. Activity in the presence of the compound was determined relative to a parallel control in which only DMSO was added. Values of the IC50 were typically determined using 6 or 8 different concentrations of the compound, although as few as 2 concentrations may be used to approximate the IC50 value.\n(§2) Nickel-coated 96-well plates (Pierce 15242) were blocked for 1 hour with 100 μl of blocking buffer at room temperature. The plates were washed 4 times with 225 μl of 1×PBS and 80 μl of the reaction buffer were added that contained 100 ng/well of Flag-ubiquitin. To this, 10 μl of the test compound diluted in DMSO were added. After the test compound was added, 10 μl of E1 (human), E2 (Ubch5c), and APC in Protein Buffer was added to obtain a final concentration of 5 ng/well of E1, 20 ng/well: of E2 and 100 ng/well of APC. The plate were shaken for 10 minutes and incubated at room temperature for 1 hour. After incubation, the plates were washed 4 times with 225 μl of 1×PBS and 100 μl/well of Antibody Mix were added to each well. The plates were incubate at room temperature for another hour after which they were washed 4 times with 225 μl of 1×PBS and 100 μl/well of Lumino substrate were added to each well. The luminescence was measured by using a BMG luminescence microplate reader.\nIn similar manner, autoubiquitination of the E3 MDM2 was determined (MDM2-FLAG). Further instruction in such assays can be found in U.S. patent application Ser. No. 10/108,767 (Publication No. US-2003-0104474 A1), which is incorporated herein in its entirety.\nhMDM2 Plate/Gel is Mouse double minute 2, human homolog. This protein belongs to the E3 RING finger ligase group."}, "[2]": {"target": "E3 (His-APC11/APC2, \"APC\") (Homo sapiens, UniProt Q9NYG5+Q9UJX6)", "sequence (Q9NYG5 whole entry)": "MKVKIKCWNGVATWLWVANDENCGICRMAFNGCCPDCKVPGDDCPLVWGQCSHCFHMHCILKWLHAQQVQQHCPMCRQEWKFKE", "sequence (Q9UJX6 whole entry)": "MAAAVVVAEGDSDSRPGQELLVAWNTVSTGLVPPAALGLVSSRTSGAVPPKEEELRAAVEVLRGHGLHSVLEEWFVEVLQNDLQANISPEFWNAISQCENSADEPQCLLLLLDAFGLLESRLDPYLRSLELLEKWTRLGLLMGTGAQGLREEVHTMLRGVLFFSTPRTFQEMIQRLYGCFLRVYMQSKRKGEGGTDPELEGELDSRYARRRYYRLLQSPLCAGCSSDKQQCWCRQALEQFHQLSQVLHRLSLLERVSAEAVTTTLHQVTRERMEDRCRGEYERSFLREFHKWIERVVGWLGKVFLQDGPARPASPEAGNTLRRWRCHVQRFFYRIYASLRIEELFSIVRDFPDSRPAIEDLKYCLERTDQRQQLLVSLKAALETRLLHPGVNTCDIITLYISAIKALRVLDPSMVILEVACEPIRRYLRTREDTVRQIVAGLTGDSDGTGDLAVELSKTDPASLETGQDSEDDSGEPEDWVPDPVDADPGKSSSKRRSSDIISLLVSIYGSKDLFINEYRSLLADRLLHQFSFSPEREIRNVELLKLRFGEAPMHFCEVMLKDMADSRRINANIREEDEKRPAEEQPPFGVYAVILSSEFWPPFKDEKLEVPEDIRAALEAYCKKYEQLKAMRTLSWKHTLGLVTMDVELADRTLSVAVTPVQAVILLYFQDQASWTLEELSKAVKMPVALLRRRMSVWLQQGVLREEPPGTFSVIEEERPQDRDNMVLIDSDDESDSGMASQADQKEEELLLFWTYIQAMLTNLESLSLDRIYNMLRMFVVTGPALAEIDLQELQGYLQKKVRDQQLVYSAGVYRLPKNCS", "assay": "Plate-based E3 ligase assay (APC FLAG), auto-ubiquitination", "type": "biochemical", "conditions": "Table 2; read-out: APC IC50", "method": "as §1, §2\nAPC Plate/gel is Anaphase Promoting Complex. This protein also belongs to E3 RING finger ligase group."}, "[3]": {"tested_on": "p53 reporter system in p53 wild-type A549 cell line", "assay": "p53-dependent transcription reporter assay, A549RE", "type": "cell-based", "conditions": "p53 +ve cell type; maximal fold induction over DMSO control", "method": "(§3) Stable lines of U2OS (osteosarcoma; Wild-type p53 positive), HCT116 (colorectal carcinoma; Wild-type p53 positive) and H1299 (lung non-small cell carcinoma; p53 null) carrying p53-dependent transcriptional regulatory element linked to a Luciferase reporter gene and H1299 carrying a 5′-regulatory region of GADD45 linked to Luciferase were used.\n(§4) Day 2: The compounds or control drugs were diluted in dimethyl sulfoxide (DMSO) and added to the wells to create 6-points/2-fold serial dilution (20, 10, 5, 2.5, 1.25, 0.625 and 0 μM) for each compound. The DMSO concentration was adjusted to 0.2% in all wells.\n(§5) Day 3: Twenty to 24 hours after compound addition, cells were twice washed with PBS and lysed with Glo-lysis buffer (100 μl/well, Promega; Cat#E2661). Plates were subjected to gentle agitation on a table-top shaker for 5 minutes at room temperature. Fifty μl of lysate was transferred to an assay plate to test for luciferase activity and mixed with 2× assay buffer (Promega; Cat# E1483). The reaction mixture was left at room temperature for 2 minutes and then luminescence was measure by a luminometer (Victor™, 1420 Multilabel Counter, Wallac).\n(§6) Data analysis was done on Excel software (Microsoft). Values in Table 4 represent maximal fold induction over negative control (DMSO only) and are the mean of at least duplicate experiments.\nA549RE is a p53 wild-type A549 cell line containing p53 reporter system. If the compound acts against MDM2, p53 activity increases."}, "[4]": {"tested_on": "p53 reporter system in p53 wild-type U2OS cell line", "assay": "p53-dependent transcription reporter assay, U20SRE", "type": "cell-based", "conditions": "p53 +ve cell type; maximal fold induction over DMSO control", "from_the_text": "as §3\nDay 1: Cells were re-plated into 96-well plates at suitable densities to make 50-60% confluence on Day 2. The plating densities are as follows: 7.5×10^3 cells/well (or 2.5×10^4 cells/cm^2) for U2OS; 1.5×10^4 cells/well (or 5.0×10^4 cells/cm^2) for HCT116; and 1.0×10^4 cells/well (or 3.3×10^4 cells/cm^2) for H1299.\nas §4, §5, §6\nU20SRE is a p53 wild-type U2OS cell line containing p53 reporter system. If the compound acts against MDM2, p53 activity increases."}}}
{"smiles": "CC(C)N(CCN(Cc1ccc(C(=O)N2CCNCC2)cc1)c1nc(-c2cccc([N+](=O)[O-])c2)cs1)C(C)C", "note": "[compound 233]", "values": [{"measurement": "IC50", "setting": "[1]", "result": "≥ 20", "unit": "µM"}, {"measurement": "IC50", "setting": "[2]", "result": "≥ 20", "unit": "µM"}, {"measurement": "Fold Induction of p53 activity, A549RE", "setting": "[3]", "result": "a (a means 2 or less)"}, {"measurement": "Fold Induction of p53 activity, U20SRE", "setting": "[4]", "result": "a (a means 2 or less)"}]}
